Data taken from ChEMBL document CHEMBL1201862, “PubChem BioAssay data set” (2004).
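Cells were grown in 96-well plates and exposed to each compound for 48 hours at five concentrations; endpoints were interpolated linearly between bracketing concentrations, or set to the highest concentration if not reached. At the GI50, growth is halved.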 Calls of active or inactive are those of the source. Rule as the data show it: active = GI50 up to about 1.1 µM and inactive = higher.

Key:
Assay in all cases: DTP human tumour cell line panel, 48 h
786-0 = test system: 786-0
A549 = test system: A549
ACHN = test system: ACHN
BT-549 = test system: BT-549
CAKI-1 = test system: CAKI-1
CCRF-CEM = test system: CCRF-CEM
COLO 205 = test system: COLO 205
DU-145 = test system: DU-145
EKVX = test system: EKVX
HCC 2998 = test system: HCC 2998
HCT-116 = test system: HCT-116
HCT-15 = test system: HCT-15
HOP-62 = test system: HOP-62
HT-29 = test system: HT-29
Hs-578T = test system: Hs-578T
IGROV-1 = test system: IGROV-1
K562 = test system: K562
KM12 = test system: KM12
M14 = test system: M14
MCF7 = test system: MCF7
MDA-MB-231 = test system: MDA-MB-231
MDA-MB-435 = test system: MDA-MB-435
MDA-N = test system: MDA-N
MOLT-4 = test system: MOLT-4
Malme-3M = test system: Malme-3M
NCI-H226 = test system: NCI-H226
NCI-H23 = test system: NCI-H23
NCI-H460 = test system: NCI-H460
NCI-H522 = test system: NCI-H522
NCI/ADR-RES = test system: NCI/ADR-RES
OVCAR-3 = test system: OVCAR-3
OVCAR-4 = test system: OVCAR-4
OVCAR-5 = test system: OVCAR-5
OVCAR-8 = test system: OVCAR-8
PC-3 = test system: PC-3
RXF 393 = test system: RXF 393
SF-268 = test system: SF-268
SF-295 = test system: SF-295
SF-539 = test system: SF-539
SK-MEL-2 = test system: SK-MEL-2
SK-MEL-5 = test system: SK-MEL-5
SK-OV-3 = test system: SK-OV-3
SN12C = test system: SN12C
SNB-19 = test system: SNB-19
SNB-75 = test system: SNB-75
SR = test system: SR
T47D = test system: T47D
TK-10 = test system: TK-10
U-251 = test system: U-251
UACC-257 = test system: UACC-257
UACC-62 = test system: UACC-62
UO-31 = test system: UO-31
HL-60 = test system: HL-60
HOP-92 = test system: HOP-92
LOX IMVI = test system: LOX IMVI
RPMI-8226 = test system: RPMI-8226
SK-MEL-28 = test system: SK-MEL-28
SW-620 = test system: SW-620
A498 = test system: A498

## c1ccc2nn(C3CCCCO3)nc2c1 (centres undefined)
786-0
  GI50: > 100 µM (inactive)
A549
  GI50: > 100 µM (inactive)
ACHN
  GI50: > 100 µM (inactive)
BT-549
  GI50: > 100 µM (inactive)
CAKI-1
  GI50: > 100 µM (inactive)
CCRF-CEM
  GI50: > 100 µM (inactive)
COLO 205
  GI50: > 100 µM (inactive)
DU-145
  GI50: > 100 µM (inactive)
EKVX
  GI50: > 100 µM (inactive)
HCC 2998
  GI50: > 100 µM (inactive)
HCT-116
  GI50: > 100 µM (inactive)
HCT-15
  GI50: > 100 µM
HOP-62
  GI50: > 100 µM (inactive)
HT-29
  GI50: > 100 µM (inactive)
Hs-578T
  GI50: > 100 µM (inactive)
IGROV-1
  GI50: > 100 µM (inactive)
K562
  GI50: > 100 µM (inactive)
KM12
  GI50: > 100 µM (inactive)
M14
  GI50: > 100 µM (inactive)
MCF7
  GI50: > 100 µM (inactive)
MDA-MB-231
  GI50: > 100 µM (inactive)
MDA-MB-435
  GI50: > 100 µM (inactive)
MDA-N
  GI50: > 100 µM (inactive)
MOLT-4
  GI50: > 100 µM (inactive)
Malme-3M
  GI50: > 100 µM (inactive)
NCI-H226
  GI50: > 100 µM (inactive)
NCI-H23
  GI50: > 100 µM (inactive)
NCI-H460
  GI50: > 100 µM (inactive)
NCI-H522
  GI50: > 100 µM (inactive)
NCI/ADR-RES
  GI50: > 100 µM (inactive)
OVCAR-3
  GI50: > 100 µM (inactive)
OVCAR-4
  GI50: > 100 µM (inactive)
OVCAR-5
  GI50: > 100 µM (inactive)
OVCAR-8
  GI50: > 100 µM (inactive)
PC-3
  GI50: > 100 µM (inactive)
RXF 393
  GI50: > 100 µM (inactive)
SF-268
  GI50: > 100 µM (inactive)
SF-295
  GI50: > 100 µM (inactive)
SF-539
  GI50: > 100 µM (inactive)
SK-MEL-2
  GI50: > 100 µM (inactive)
SK-MEL-5
  GI50: > 100 µM (inactive)
SK-OV-3
  GI50: > 100 µM (inactive)
SN12C
  GI50: > 100 µM (inactive)
SNB-19
  GI50: > 100 µM (inactive)
SNB-75
  GI50: > 100 µM (inactive)
SR
  GI50: > 100 µM (inactive)
T47D
  GI50: > 100 µM (inactive)
TK-10
  GI50: > 100 µM (inactive)
U-251
  GI50: > 100 µM (inactive)
UACC-257
  GI50: > 100 µM (inactive)
UACC-62
  GI50: > 100 µM (inactive)
UO-31
  GI50: > 100 µM (inactive)

## Cc1ccc([N+](=O)[O-])cc1S(=O)(=O)Nc1ccc(C2=NN(c3ccc([N+](=O)[O-])cc3[N+](=O)[O-])C(c3ccccc3O)C2)cc1 (centres undefined)
786-0
  GI50: 39.8 µM (inactive)
A549
  GI50: 31.4 µM (inactive)
ACHN
  GI50: 35.1 µM (inactive)
BT-549
  GI50: 28.2 µM (inactive)
CAKI-1
  GI50: 33.8 µM (inactive)
CCRF-CEM
  GI50: 25 µM (inactive)
COLO 205
  GI50: 32.4 µM (inactive)
DU-145
  GI50: 39.1 µM (inactive)
EKVX
  GI50: 26 µM (inactive)
HCT-116
  GI50: 29 µM (inactive)
HCT-15
  GI50: 27 µM
HL-60
  GI50: 27.4 µM (inactive)
HOP-62
  GI50: 36.3 µM (inactive)
HOP-92
  GI50: 26.6 µM (inactive)
HT-29
  GI50: 43.3 µM (inactive)
Hs-578T
  GI50: 42.7 µM (inactive)
IGROV-1
  GI50: 26.4 µM (inactive)
K562
  GI50: 21.8 µM (inactive)
KM12
  GI50: 37 µM (inactive)
LOX IMVI
  GI50: 42 µM (inactive)
M14
  GI50: 34.2 µM (inactive)
MCF7
  GI50: 27.9 µM (inactive)
MDA-MB-231
  GI50: 20.6 µM (inactive)
MDA-MB-435
  GI50: 39.4 µM (inactive)
MDA-N
  GI50: 29.3 µM (inactive)
MOLT-4
  GI50: 12.7 µM (inactive)
Malme-3M
  GI50: 41.7 µM (inactive)
NCI-H226
  GI50: 36.6 µM (inactive)
NCI-H23
  GI50: 19.6 µM (inactive)
NCI-H522
  GI50: 21 µM (inactive)
NCI/ADR-RES
  GI50: 27.9 µM (inactive)
OVCAR-3
  GI50: 24.9 µM (inactive)
OVCAR-4
  GI50: 31 µM (inactive)
OVCAR-5
  GI50: > 100 µM (inactive)
OVCAR-8
  GI50: 38.4 µM (inactive)
PC-3
  GI50: 36.4 µM (inactive)
RPMI-8226
  GI50: 49.1 µM (inactive)
RXF 393
  GI50: 40.6 µM (inactive)
SF-268
  GI50: 35.6 µM (inactive)
SF-295
  GI50: 29.9 µM (inactive)
SF-539
  GI50: 55.5 µM (inactive)
SK-MEL-28
  GI50: 75.5 µM (inactive)
SK-MEL-2
  GI50: 20.7 µM (inactive)
SK-MEL-5
  GI50: 20 µM (inactive)
SK-OV-3
  GI50: 57 µM (inactive)
SN12C
  GI50: 18 µM (inactive)
SNB-19
  GI50: 47.1 µM (inactive)
SNB-75
  GI50: 40.4 µM (inactive)
SR
  GI50: 27.2 µM (inactive)
SW-620
  GI50: 63.7 µM (inactive)
T47D
  GI50: 27.6 µM (inactive)
TK-10
  GI50: 43.7 µM (inactive)
U-251
  GI50: 37.1 µM (inactive)
UACC-257
  GI50: 25.2 µM (inactive)
UO-31
  GI50: 24.5 µM (inactive)

## COC(=O)C1=C(O)C(C(=O)OC)[C@@]2(O)[C@@H](C(=O)OC)C(c3ccc(OC(=O)/C(=C/c4ccc(Cl)cc4)c4ccc(Cl)cc4)cc3)C[C@@H]1[C@@H]2C(=O)OC (some centres undefined)
786-0
  GI50: 22 µM (inactive)
A498
  GI50: > 100 µM (inactive)
A549
  GI50: 77.4 µM (inactive)
ACHN
  GI50: 32.4 µM (inactive)
BT-549
  GI50: 95.7 µM (inactive)
CAKI-1
  GI50: 15.9 µM (inactive)
CCRF-CEM
  GI50: 6.3 µM (inactive)
COLO 205
  GI50: 24 µM (inactive)
DU-145
  GI50: 39 µM (inactive)
EKVX
  GI50: 33.8 µM (inactive)
HCT-116
  GI50: 11.3 µM (inactive)
HCT-15
  GI50: 18.5 µM
HL-60
  GI50: 34.6 µM (inactive)
HOP-62
  GI50: > 100 µM (inactive)
HOP-92
  GI50: 19.5 µM (inactive)
HT-29
  GI50: 38.5 µM (inactive)
Hs-578T
  GI50: > 100 µM (inactive)
IGROV-1
  GI50: 20.2 µM (inactive)
K562
  GI50: 22.3 µM (inactive)
KM12
  GI50: 37.8 µM (inactive)
LOX IMVI
  GI50: 14.3 µM (inactive)
M14
  GI50: 15.6 µM (inactive)
MCF7
  GI50: 20.6 µM (inactive)
MDA-MB-231
  GI50: 19.1 µM (inactive)
MDA-MB-435
  GI50: 23.5 µM (inactive)
MDA-N
  GI50: 17.5 µM (inactive)
MOLT-4
  GI50: 4.45 µM (inactive)
Malme-3M
  GI50: 55.7 µM (inactive)
NCI-H226
  GI50: 19.5 µM (inactive)
NCI-H23
  GI50: 50.1 µM (inactive)
NCI-H460
  GI50: 14.4 µM (inactive)
NCI-H522
  GI50: 36.6 µM (inactive)
NCI/ADR-RES
  GI50: 57.7 µM (inactive)
OVCAR-3
  GI50: 51.1 µM (inactive)
OVCAR-4
  GI50: 20.6 µM (inactive)
OVCAR-5
  GI50: 30.1 µM (inactive)
OVCAR-8
  GI50: 41 µM (inactive)
PC-3
  GI50: 24.1 µM (inactive)
RXF 393
  GI50: 11.2 µM (inactive)
SF-268
  GI50: 99.3 µM (inactive)
SF-295
  GI50: 29.8 µM (inactive)
SF-539
  GI50: 12.2 µM (inactive)
SK-MEL-28
  GI50: > 100 µM (inactive)
SK-MEL-2
  GI50: 14.3 µM (inactive)
SK-MEL-5
  GI50: 26.1 µM (inactive)
SK-OV-3
  GI50: > 100 µM (inactive)
SN12C
  GI50: 25.9 µM (inactive)
SNB-19
  GI50: 61.9 µM (inactive)
SNB-75
  GI50: 28.3 µM (inactive)
SR
  GI50: 9.06 µM (inactive)
SW-620
  GI50: 31.1 µM (inactive)
T47D
  GI50: 18.7 µM (inactive)
TK-10
  GI50: 16.1 µM (inactive)
U-251
  GI50: 24.4 µM (inactive)
UACC-257
  GI50: 52.6 µM (inactive)
UACC-62
  GI50: 7.29 µM (inactive)
UO-31
  GI50: 12.6 µM (inactive)
